Assay results published in patent US20240197761A1, “FUCOSYLATION AND IMMUNE MODULATION IN CANCER” (H. LEE MOFFITT CANCER CENTER AND RESEARCH INSTITUTE, INC., priority 2021, published 2024).

Columns and labels:
TUBO (mouse BC) [1] = assay: TUBO breast cancer growth in immunodeficient mice ± L-fuc; assay type: in vivo; details: immunodeficient NSG mice ± 500 mM L-fuc (FIG. 3A)
TUBO (mouse BC) [2] = assay: TUBO breast cancer growth and TILs in immunocompetent mice, L-fuc dose escalation; assay type: in vivo, Balb/C mice; details: for TUBO tumor growth: immunocompetent Balb/C mice, L-fuc dose escalation (FIG. 3B)
SW1 tumors = assay: Immunodepletion mouse model (CD4+ or CD8+ T cell depletion), SW1; assay type: in vivo, C3H/HeN mice
Description: Total TILs were gated first to single cells (based on forward scatter height vs width, followed by side scatter height vs. width). Live cells were gated from the Zombie negative population from the population above. TILs were gated based on splenocyte size from a control spleen. Individual immune subpopulations were sub-gated from the total TIL population using the following staining criteria: CD3+ for CD3+ T cells; CD3+/CD4+/CD8− for CD4+T cells; CD3+/CD4−/CD8+ for CD8+ T cells, CD11c+/CD11b+ for DCs; either NK1.1 (for C57/BL6 mice) or DX5 (for C3H/HeJ) for NK cells; CD11b+/GR1+ for MDSC-like cells; and F4/80+ for macrophages. Single-cell suspensions from tumor and spleen tissue were stained with Live/Dead Zombie NIR (Biolegend, (San Diego, CA)) at 1:1,000 in PBS for 20 min. Cell suspensions were spun down and stained with the following with antibodies at 0.5 μg/ml per antibody: APC anti-mouse CD3, Pacific Blue anti-mouse CD4, BV785 anti-mouse CD8, PerCP anti-mouse CD25, FITC anti-mouse F4/80, PeCy7 anti-mouse CD11c, PE anti-mouse NK1.1 or PE anti-mouse DX5, and PerCP-Cy5.5 anti-mouse CD11 b. After staining, the cells were washed and fixed (2% formaldehyde), followed by another wash and flow cytometric analysis. The compensation controls were prepared using 0.5 μg/mL of each antibody with UltraComp eBeads, (ThermoFisher Scientific (Waltham, MA)). All samples were subject to flow cytometric profiling using a LSR Flow Cytometer (BD Biosciences (San Jose, CA)) and analysis as indicated using FlowJo software (BD Biosciences (San Jose, CA)).
All animals were housed at the Vincent A. Stabile Research building animal facility at H. Lee Moffitt Cancer Center & Research Institute, which is fully accredited by the Association for Assessment and Accreditation of Laboratory Animal Care International (AAALAC, #434), and are managed in accordance with the Guide for the Care and Use of Laboratory Animals (“The Guide”), the Animal Welfare Regulations Title 9 Code of Federal Regulations Subchapter A, “Animal Welfare”, Parts 1-3 (AWR), the Public Health Service Policy on Humane Care and Use of Laboratory Animals (PHS Policy), and by the USF Institutional Animal Care and Use Committee's Principles and Procedures of Animal Care and Use (IACUC Principles). The experiments and protocols detailed in this study received institutional approval by the Moffitt IACUC (RIS00001625). Four-to-six-week-old female C3H/HeN and male C57BL6 mice were purchased from Charles Rivers Laboratories for the indicated experiments. Four-to-six-week-old male NSG mice from the Lau laboratory breeding colony were used for the indicated experiments. […] Mouse tumor volumes were measured using length, width and depth divided by 2. […]

C[C@H](O)[C@@H](O)[C@@H](O)[C@H](O)C=O [L-fucose]
TUBO tumor growth (TUBO (mouse BC) [1]): not effected | fold-change in TIL subsets: MDSCs (TUBO (mouse BC) [2]; 500 vs. 0 mM L-fuc, TUBO tumors (FIG. 3D)): 3.1 fold | number of TILs/g tumor (TUBO (mouse BC) [2]; FIG. 3C): increased | fold increase in TIL subsets: CD4 T cells (TUBO (mouse BC) [2]; following L-fucose administration (FIG. 3D)): 3.1 fold | TUBO tumor growth (TUBO (mouse BC) [2]): dose dependent decrease | TUBO tumor growth (TUBO (mouse BC) [2]; listed as L-fuc): suppresses | reduction of tumor growth (SW1 tumors; CD4+T cell depletion): completely abrogated | L-fuc-induced increases in total itICs (incl. NK, DC, CD8+T cells) (SW1 tumors; CD4+T cell-depletion): blocked | reduction of tumor growth (SW1 tumors; CD8+T cell-depleted mice): > 50% | reduction of tumor growth (SW1 tumors; control (PBS-injected) mice): > 50%
